Results reported in PubChem BioAssay AID2305 (GlaxoSmithKline (GSK), 2010).
pIC50: −log10 of the molar value. Where “and” joins values, the source holds several entries; their conditions need not be identical. Equal values may be shown once.

These compounds were tested on P. falciparum 3D7 growth, pLDH absorbance (assay: blood-stage malaria parasite growth potency – strain 3D7, dose response (AID 2305)).
In the case of COc1cc(C(=O)Nc2cccc(-c3nc4ccccc4[nH]3)c2)cc(OC)c1OC, the pIC50 was 6.14. For CSc1nccc(-c2ccc3ccnc(N)c3c2)n1, the pIC50 was 6.04. For CCNC(=O)Nc1ccc(N(C)c2ccnc(NC3CC3)n2)cc1, the pIC50 was 6.10. Compound CC(C)(C)c1nn(-c2ccccc2)c2[nH]c(=O)c(CNC3CCCC3)cc12 has a pIC50 of 6.07. COc1ccc(CCOc2c(C)nc(N)nc2N)cc1OC gave a pIC50 of 7.15. CC(C)(C)OC(=O)C1CCCN(Cc2ccc(-c3cccc(-c4nc5ccccc5[nH]4)c3)cc2)C1 (stereo unspecified) was tested, and the pIC50 was 6.44. With CC(C)C[C@@H](C(=O)N[C@@H](CCCCNC(=O)OCc1ccccc1)C(=O)Nc1nccs1)[C@H](C)N(O)C=O the pIC50 was 6.72. CCC1(C)N=C(N)N=C(N)N1c1ccc(Cl)cc1 (stereo unspecified) gave a pIC50 of 6.80. Compound CCN(c1ccc(O)c(CN2CCCCC2)c1)c1ccc([N+](=O)[O-])cn1 has a pIC50 of 6.05. Compound CCc1cc2c(Sc3nc4ccccc4[nH]3)ncnc2s1 has a pIC50 of 6.09. In the case of Cn1c(C2C[C@H]3CC[C@H](C2)N3CC2CCC(NC(=O)/C=C/c3ccc(Cl)c(Cl)c3)CC2)nc2ccccc21 (stereo partly specified), the pIC50 was 6.25. With CC(C)CSc1cc(C(=O)Nc2cc(Cl)ccc2O)ccn1 the pIC50 was 6.17. In the case of O=S(=O)(NCCN1CCCC1)c1ccc(-c2ccc(CNCc3ccccc3)cc2)cc1, the pIC50 was 6.11. In the case of O=C(Nc1cccc(Cl)c1)N(CCCn1ccnc1)Cc1csc(-c2ccc(CNCc3ccccc3)cc2)n1, the pIC50 was 6.27. For CSc1ccc(CN2CCC(CNC(=O)c3cc(-c4ccccc4F)cs3)C2)cc1 (stereo unspecified), the pIC50 was 5.94. CCCc1ccc(NC(=O)c2cccc(CN3CCCN(Cc4cccc(C#N)c4)CC3)c2)cc1 showed a pIC50 of 6.01. In the case of CCOc1ccc(S(=O)(=O)N(C)c2ccc(OCC(=O)Nc3nccs3)cc2)cc1, the pIC50 was 6.02. Oc1ccc2ccccc2c1CNC1CCCCCC1 gave a pIC50 of 6.03. With c1ccc(CN2CCN(CCCCNc3c4ccccc4nc4ccccc34)CC2)cc1 the pIC50 was 6.92. COc1cc(CNCCCNc2cc(=O)c3ccccc3[nH]2)c2c(c1)C(C)CN2C(=O)OC(C)(C)C (stereo unspecified) was tested, and the pIC50 was 6.14. COCCCNC(=S)NN=C(C)c1ccccn1 showed a pIC50 of 6.52. Compound COc1ccc2nccc(N(C)CC3(O)CCC(NCc4ccc5c(n4)NC(=O)CS5)CC3)c2n1 (stereo unspecified) has a pIC50 of 6.15. For CC(C)c1cc2c(ccc3nc(N)nc(N)c32)o1, the pIC50 was 7.05. Work on Cn1c(NC(=O)C2CCC(CNC(=O)c3ccc(O)c(-c4ccc(Cl)c(Cl)c4)c3)CC2)nc2ccccc21 (stereo unspecified) yielded a pIC50 of 6.19. With Cc1ccccc1C1CCN(C2CCC(NC(=O)/C=C/c3cc(C(F)(F)F)ccc3F)CC2)CC1 (stereo unspecified) the pIC50 was 6.08. CCN(CC1CCN(CC2(O)CCOCC2)CC1)c1cc(C)nc(Nc2ccc(Cl)cc2)n1 was tested, and the pIC50 was 6.39. O=C(n1c(-c2cc3ccccc3n2C(=O)C(F)(F)F)cc2ccccc21)C(F)(F)F was tested, and the pIC50 was 6.06. Compound CCOc1ccc2nc(C)cc(NN=Cc3ccccc3)c2c1 has a pIC50 of 6.11. COc1ccc2nccc([C@@H](O)CN3CCC(NC(=O)/C=C/c4cc(F)cc(NC(C)=O)c4)CC3)c2c1 showed a pIC50 of 6.74. For O=C(C=Cc1ccc([N+](=O)[O-])cc1)NC1CCC(CN2CCC(c3c[nH]c4ccccc34)CC2)CC1 (stereo unspecified), the pIC50 was 6.10 and 6.08. With CC(C)n1ncc2c(C(=O)N3CCCCCC3)cc(-c3ccccc3)nc21 the pIC50 was 6.10. In the case of FC(F)(F)c1ccc2nc(-c3ccc(-c4cccc(CNCCN5CCNCC5)c4)cc3)[nH]c2c1, the pIC50 was 5.99. Cc1cc(NS(=O)(=O)c2cccc(C(C)N3CCC(N4CCCC4)CC3)c2)ccc1C(C)C (stereo unspecified) gave a pIC50 of 6.09. Work on CCCc1cc(Cc2cnc(N)nc2N)cc(OCCCCCC(=O)O)c1OC yielded a pIC50 of 6.80. With COc1cc2c(cc1C(F)(F)F)N(C(=O)Nc1cc(F)cc(-c3cccnn3)c1)CC2 the pIC50 was 6.57. NC1=NC(c2ccccc2)N(c2ccccc2)C(N)=N1 (stereo unspecified) showed a pIC50 of 6.54. Work on CN1CCCC(CN2CCN(Cc3cccc(-c4ccc(-c5nc6ccc(F)cc6[nH]5)cc4)c3)CC2)C1 (stereo unspecified) yielded a pIC50 of 6.85. With COc1ccc(Oc2ccc(Nc3ccnc4ccc(C(F)(F)F)cc34)cc2)cc1OC the pIC50 was 5.97. O=C(/C=C/c1ccc(Cl)c(Cl)c1)NCCCCCN1CCC(CCNC(=O)c2snnc2-c2ccccc2)CC1 gave a pIC50 of 6.09. COc1ccc(CCN(C)CCCCc2ccc(NC(=O)c3cccc4c(=O)c5cc(F)ccc5sc34)cc2)cc1OC showed a pIC50 of 6.05. In the case of COc1ccccc1CCNc1nc(C)cc(N[C@@H](Cc2ccccc2)C(=O)NCCCOC(C)C)n1, the pIC50 was 6.07. In the case of Cc1cccc2[nH]c(-c3cccc(-c4ccc(NC(=O)C(C)(C)c5ccccn5)cc4)c3)nc12, the pIC50 was 6.16. OC(COCc1ccc(-c2ccccc2)cc1)CN1CCCCC1 (stereo unspecified) showed a pIC50 of 6.57. Work on CC(C)CNC(=S)N1CCCN(c2nc3ccc(Cl)cc3s2)CC1 yielded a pIC50 of 6.02. CN(C)Cc1ccc2cc(NC(=O)c3ccc(-c4ccc(Cl)cc4)cc3)ccc2n1 was tested, and the pIC50 was 6.07. For O=C(C=Cc1ccccc1Br)NC1CCC(CN2CCC(c3c[nH]c4ccccc34)CC2)CC1 (stereo unspecified), the pIC50 was 6.13 and 6.16. With CCCCCCn1c(Sc2ccc(C#N)c([N+](=O)[O-])c2)nnc1-c1ccccc1 the pIC50 was 6.11. Compound CCCNCCc1ccc(NS(=O)(=O)c2cccc(-c3ccc(Cl)cc3)c2)cc1 has a pIC50 of 6.01. Work on CCCCC#Cc1cnc2nc(N)[nH]c(=O)c2n1 yielded a pIC50 of 6.19. With COc1ccc2nccc([C@@H](O)CN3CCC(NCCNc4cccc(F)c4)CC3)c2c1 the pIC50 was 6.74. Work on CCC(CC)N1C(=O)C(c2ccccc2)(c2ccccc2)N=C1N yielded a pIC50 of 6.10. For N#Cc1ccc2c(c1)CCN(CCC1CCC(NC(=O)Nc3ccnc4ccccc34)CC1)C2 (stereo unspecified), the pIC50 was 6.42. COc1ccc(CN2CCC(CNCCc3ccccc3Cl)CC2)cc1 showed a pIC50 of 5.95. CC(Cc1ccc(OCCCCOc2ccccc2)cc1)NCCCN1CCOCC1 (stereo unspecified) gave a pIC50 of 6.14. In the case of CNC(=O)c1ccc2[nH]cc(C3CCN(CC4CCC(NC(=O)/C=C/c5ccc(Cl)c(Cl)c5)CC4)CC3)c2c1 (stereo unspecified), the pIC50 was 6.00. CCn1cnc2c(N3CCCS3(=O)=O)cc(C(=O)N[C@@H](Cc3ccccc3)[C@H](O)CNC(C)(C)c3cccc(C(F)(F)F)c3)cc21 gave a pIC50 of 6.64. O=S(=O)(NCCN1CCCC1)c1ccc(-c2cccc(CNCc3ccsc3)c2)s1 was tested, and the pIC50 was 6.05. With CNC(=O)c1ccc2nc(-c3ccc(-c4ccccc4)cc3)n(CC3CCN(CC4CCCC4)CC3)c2c1 the pIC50 was 7.40. Work on O=C(Nc1ccnc(N2C[C@H]3C[C@@H]2CN3Cc2cccc(O)c2)c1)c1ccc(F)cc1 yielded a pIC50 of 5.91. Fc1cc(Cl)ccc1Nc1ccnc2cc(-c3scnc3CNCCN3CCOCC3)ccc12 showed a pIC50 of 6.07. Compound CCc1cccc(-c2cc(=N)n(C)c3nc(N)[nH]c(=O)c23)c1 has a pIC50 of 5.95. COc1cc(OC)c2c(C)cc(NCCCn3ccnc3)nc2c1 showed a pIC50 of 6.10. With CCc1cn2c3c(cc(C(=O)N[C@@H](Cc4ccccc4)[C@H](O)CNC4CCC4)cc13)N(C)S(=O)(=O)CC2 the pIC50 was 7.00. CCOc1ccc(C2CCN(CCN3CCC(NC(=O)c4ccc(-c5ccc(C(F)(F)F)cc5)cc4)CC3)CC2)c(OCC2CC2)c1 was tested, and the pIC50 was 6.08. Compound CCCNCc1ccc(-c2ccc(CN(Cc3cnc(C)cn3)C(=O)c3nn(-c4ccccc4)nc3C)cc2)nc1 has a pIC50 of 6.38. Work on CCOC(=O)N1CCN(C(=O)Nc2ccc(Cl)cc2)CC1 yielded a pIC50 of 5.82. O=[N+]([O-])c1cccc(CNCC2CCN(Cc3ccc(C(F)(F)F)cc3)CC2)c1 showed a pIC50 of 6.60. With O=c1cc(NCCC(CNCc2ccoc2)NCc2cc(Br)cc(Br)c2)[nH]c2ccccc12 (stereo unspecified) the pIC50 was 6.04. COc1cccc(CNC[C@@H](O)[C@H](Cc2ccccc2)NC(=O)c2cc(NC(C)C)cc(N3CCCCS3(=O)=O)c2)c1 gave a pIC50 of 6.11. With CN(C)CCc1coc2ccc(C(=O)Nc3ccc(-c4ccc(O)cc4)cc3)cc12 the pIC50 was 5.97. O=C(c1cccc(COc2ccc3c(c2)CCN(C2CCCC2)CC3)c1)N1CCN(c2ccncc2)CC1 gave a pIC50 of 6.13.
